compound: CC(C)=CC[C@@H](O)C1=CC(=O)c2c(O)ccc(O)c2C1=O [Shikonin] + Nc1ncn([C@H]2C[C@H](O)[C@@H](CO)O2)c(=O)n1 [Decitabine] (partner 2 µM); test: relative viability (nuclei count vs DMSO), 5 days (fraction); higher = more cells survive; conditions: first compound 0.01 µM
Outline: (§1)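 For relative viability, nuclei counts in treated wells were divided by those in vehicle wells. Lung cancer cell lines had been pin-tool dosed in 1536-well plates the day after seeding and cultured for 5 days, then fixed and stained in one step (final 0.05% Triton X-100, 1% formaldehyde, 1 ug/ml Hoechst) and imaged at 4×. Doses were one drug alone or a fixed anchor-drug dose plus five library-drug doses (not always all listed) in √10 steps, and values are duplicate-plate medians.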

Cell Line | relative viability
NCI-H2342 | 0.723
PC-14 | 0.216
NCI-H1650 | 0.379
NCI-H2009 | 0.335
NCI-H1993 | 0.668
NCI-H520 | 0.47
PC-3 [JPC-3] | 0.765
LCLC-103H | 0.711
NCI-H647 | 0.364
EMC-BAC-2 | 0.964
NCI-H2087 | 0.283
HCC-366 | 0.34
NCI-H1666 | 0.668
NCI-H650 | 0.295
LK-2 | 0.297
NCI-H2126 | 0.593
NCI-H1648 | 0.481
SK-MES-1 | 0.323
H3255 | 0.606

Cell Line | relative viability
COR-L23 | 0.382
COR-L 105 | 0.64
LOU-NH91 | 0.787
ChaGo-K-1 | 0.521
NCI-H2170 | 0.481
NCI-H3122 | 0.485
HOP-62 | 0.24
HCC-44 | 0.953
A549 | 0.223
NCI-H522 | 0.62
LU99A | 0.744
BEN | 0.658
HARA | 0.516
SW 900 | 0.373
NCI-H1395 | 0.719
NCI-H1793 | 0.513
NCI-H1944 | 0.464
ABC-1 | 1.33
NCI-H358 | 0.178

same assay, conditions: first compound 0.1 µM

Cell Line | relative viability
NCI-H2342 | 0.72
PC-14 | 0.278
NCI-H1650 | 0.355
NCI-H2009 | 0.399
NCI-H1993 | 0.592
NCI-H520 | 0.598
PC-3 [JPC-3] | 0.896
LCLC-103H | 0.727
NCI-H647 | 0.504
EMC-BAC-2 | 1.07
NCI-H2087 | 0.263
HCC-366 | 0.381
NCI-H1666 | 0.779
NCI-H650 | 0.314
LK-2 | 0.272
NCI-H2126 | 0.589
SK-MES-1 | 0.417
H3255 | 0.658
COR-L23 | 0.516

Cell Line | relative viability
COR-L 105 | 0.703
LOU-NH91 | 0.879
ChaGo-K-1 | 0.529
NCI-H2170 | 0.449
NCI-H3122 | 0.467
HOP-62 | 0.222
HCC-44 | 0.928
A549 | 0.281
NCI-H522 | 0.763
LU99A | 1.05
BEN | 0.787
HARA | 0.674
SW 900 | 0.536
NCI-H1395 | 0.796
NCI-H1793 | 0.565
NCI-H1944 | 0.446
ABC-1 | 1.28
NCI-H358 | 0.23

same assay, conditions: first compound 0.3162 µM

Cell Line | relative viability
NCI-H2342 | 0.74
PC-14 | 0.413
NCI-H1650 | 0.424
NCI-H2009 | 0.399
NCI-H1993 | 0.632
NCI-H520 | 0.454
PC-3 [JPC-3] | 0.843
LCLC-103H | 0.74
NCI-H647 | 0.346
EMC-BAC-2 | 1.13
NCI-H2087 | 0.278
HCC-366 | 0.37
NCI-H1666 | 0.82
NCI-H650 | 0.334
LK-2 | 0.289
NCI-H2126 | 0.628
NCI-H1648 | 0.526
SK-MES-1 | 0.371
H3255 | 0.663

Cell Line | relative viability
COR-L23 | 0.399
COR-L 105 | 0.625
LOU-NH91 | 0.856
ChaGo-K-1 | 0.513
NCI-H2170 | 0.496
NCI-H3122 | 0.443
HOP-62 | 0.205
HCC-44 | 1.1
A549 | 0.239
NCI-H522 | 0.644
LU99A | 0.978
BEN | 0.707
HARA | 0.691
SW 900 | 0.395
NCI-H1395 | 0.692
NCI-H1793 | 0.451
NCI-H1944 | 0.443
ABC-1 | 1.21
NCI-H358 | 0.218

same assay, conditions: first compound 1 µM

Cell Line | relative viability
NCI-H2342 | 0.748
PC-14 | 0.161
NCI-H1650 | 0.389
NCI-H2009 | 0.222
NCI-H1993 | 0.555
NCI-H520 | 0.401
PC-3 [JPC-3] | 0.82
LCLC-103H | 0.75
NCI-H647 | 0.328
EMC-BAC-2 | 0.956
NCI-H2087 | 0.294
HCC-366 | 0.367
NCI-H1666 | 0.734
NCI-H650 | 0.27
LK-2 | 0.352
NCI-H2126 | 0.559
NCI-H1648 | 0.532
SK-MES-1 | 0.426
H3255 | 0.503

Cell Line | relative viability
COR-L23 | 0.398
COR-L 105 | 0.477
LOU-NH91 | 0.816
ChaGo-K-1 | 0.567
NCI-H2170 | 0.503
NCI-H3122 | 0.458
HOP-62 | 0.212
HCC-44 | 0.979
A549 | 0.193
NCI-H522 | 0.553
LU99A | 0.852
BEN | 0.767
HARA | 0.591
SW 900 | 0.396
NCI-H1395 | 0.71
NCI-H1793 | 0.456
NCI-H1944 | 0.435
ABC-1 | 1.02
NCI-H358 | 0.19

compound: CC(C)=CC[C@@H](O)C1=CC(=O)c2c(O)ccc(O)c2C1=O [Shikonin] + CC(C)C[C@H](NC(=O)[C@H](Cc1ccccc1)NC(=O)c1cnccn1)B(O)O [Bortezomib] (partner 0.002 µM); test: as above; conditions: first compound 0.01 µM
Outline: as §1

Cell Line | relative viability
PC-14 | 0.973
NCI-H1650 | 0.269
EBC-1 | 0.604
NCI-H1703 | 0.302
NCI-H2009 | 1.07
PC-3 [JPC-3] | 0.824
LCLC-103H | 1.12
NCI-H647 | 1.06
NCI-H2228 | 0.928
EMC-BAC-2 | 1.05
NCI-H2087 | 0.951
Calu-6 | 1.1
HCC-366 | 1.32
NCI-H1666 | 0.799
NCI-H650 | 0.83
NCI-H2126 | 1.16

Cell Line | relative viability
H3255 | 0.755
COR-L23 | 1.1
COR-L 105 | 0.88
IA-LM | 0.715
LOU-NH91 | 0.533
ChaGo-K-1 | 0.957
NCI-H3122 | 1.06
HOP-62 | 0.958
HCC-44 | 0.946
LU99A | 1.21
BEN | 0.826
HARA | 1.16
NCI-H1299 | 1.03
CAL-12T | 0.898
NCI-H1563 | 0.824
ABC-1 | 0.279

same assay, conditions: first compound 0.1 µM

Cell Line | relative viability
PC-14 | 0.953
NCI-H1650 | 0.212
EBC-1 | 0.48
NCI-H1703 | 0.361
NCI-H2009 | 1.11
NCI-H1993 | 1.19
NCI-H520 | 0.699
PC-3 [JPC-3] | 0.894
LCLC-103H | 1.12
NCI-H647 | 0.829
NCI-H2228 | 0.877
EMC-BAC-2 | 1.18
NCI-H2087 | 0.888
Calu-6 | 1.2
HCC-366 | 1.59
NCI-H1666 | 0.879
NCI-H2126 | 1.23

Cell Line | relative viability
H3255 | 1.09
COR-L23 | 1.11
COR-L 105 | 0.887
IA-LM | 0.769
LOU-NH91 | 0.469
ChaGo-K-1 | 1.35
NCI-H3122 | 1.13
HOP-62 | 0.715
HCC-44 | 0.99
LU99A | 1.33
BEN | 1.04
HARA | 1.24
NCI-H1299 | 1.03
CAL-12T | 1.05
NCI-H1563 | 0.909
ABC-1 | 0.31

same assay, conditions: first compound 0.3162 µM

Cell Line | relative viability
PC-14 | 1.02
NCI-H1650 | 0.191
EBC-1 | 0.644
NCI-H1703 | 0.23
NCI-H2009 | 0.904
NCI-H1993 | 1.09
NCI-H520 | 0.48
PC-3 [JPC-3] | 0.837
LCLC-103H | 1.07
NCI-H647 | 1.05
NCI-H2228 | 1.25
EMC-BAC-2 | 1.21
NCI-H2087 | 1.14
Calu-6 | 0.878
HCC-366 | 1.12
NCI-H1666 | 0.819
NCI-H650 | 0.77

Cell Line | relative viability
NCI-H2126 | 1.1
H3255 | 0.92
COR-L23 | 1.18
COR-L 105 | 0.751
IA-LM | 1.04
LOU-NH91 | 0.445
ChaGo-K-1 | 0.911
NCI-H3122 | 1.01
HOP-62 | 0.875
HCC-44 | 0.864
LU99A | 1.09
BEN | 0.748
HARA | 1.16
NCI-H1299 | 1.05
CAL-12T | 1.01
NCI-H1563 | 0.757
ABC-1 | 0.274

same assay, conditions: first compound 1 µM

Cell Line | relative viability
PC-14 | 0.881
NCI-H1650 | 0.171
EBC-1 | 0.526
NCI-H1703 | 0.114
NCI-H2009 | 0.289
NCI-H1993 | 1.03
NCI-H520 | 0.689
PC-3 [JPC-3] | 0.868
LCLC-103H | 1.25
NCI-H647 | 1.03
NCI-H2228 | 0.981
EMC-BAC-2 | 1.07
NCI-H2087 | 0.898
Calu-6 | 0.674
HCC-366 | 1.08
NCI-H1666 | 0.729
NCI-H650 | 0.98

Cell Line | relative viability
NCI-H2126 | 1.19
H3255 | 1.03
COR-L23 | 0.8
COR-L 105 | 0.603
IA-LM | 0.876
LOU-NH91 | 0.535
ChaGo-K-1 | 1.53
NCI-H3122 | 1.06
HOP-62 | 0.902
HCC-44 | 0.933
LU99A | 1.03
BEN | 0.849
HARA | 1.24
NCI-H1299 | 1.03
CAL-12T | 1.17
NCI-H1563 | 0.607
ABC-1 | 0.254

compound: CC(C)=CC[C@@H](O)C1=CC(=O)c2c(O)ccc(O)c2C1=O [Shikonin] + CC(=O)Nc1cccc(-n2c(=O)n(C3CC3)c(=O)c3c(Nc4ccc(I)cc4F)n(C)c(=O)c(C)c32)c1 [Trametinib] (partner 0.02 µM); test: as above; conditions: first compound 0.01 µM
Outline: as §1

Cell Line | relative viability
NCI-H2342 | 0.902
PC-14 | 0.936
NCI-H1650 | 0.582
NCI-H2009 | 0.256
NCI-H1993 | 0.526
NCI-H520 | 0.685
PC-3 [JPC-3] | 0.664
LCLC-103H | 0.662
NCI-H647 | 0.414
NCI-H2228 | 0.342
EMC-BAC-2 | 0.863
NCI-H2087 | 0.198
HCC-366 | 0.359
NCI-H1666 | 0.896
NCI-H650 | 0.988
LK-2 | 0.884

Cell Line | relative viability
NCI-H2126 | 0.549
NCI-H1648 | 0.422
SK-MES-1 | 0.595
H3255 | 0.658
COR-L23 | 0.769
COR-L 105 | 0.387
LOU-NH91 | 0.815
ChaGo-K-1 | 0.883
NCI-H2170 | 0.937
NCI-H3122 | 0.183
HOP-62 | 0.389
HCC-44 | 1.08
NCI-H522 | 0.747
LU99A | 0.537
BEN | 1.13
